Assay: clinical
Format: in vivo
Conditions: for concentration at 2 h: human, plasma, oral, post dose (2 h)
Experimental: The pharmacokinetics (PK) and pharmacodynamics of the 60 mg bid dose had not previously been studied. […] 180 patients who had received >4 weeks of study medication had blood sampling in the morning pre-maintenance dose and again 2 h post-dose. All patients were receiving aspirin. […] Well-known VerifyNow® P2Y12 assay and light transmittance aggregometry (LTA; ADP 20 uM) were performed. Groups were compared using Kruskal-Wallis test with significance attached to P<0.01 to allow for multiple group comparisons.

For CCCSc1nc(N[C@@H]2C[C@H]2c2ccc(F)c(F)c2)c2nnn([C@@H]3C[C@H](OCCO)[C@@H](O)[C@H]3O)c2n1 [Ticagrelor, (1S,2S,3R,5S)-3-[7-{[(1R,2S)-2-(3,4-difluorophenyl)cyclopropyl]amino}-5-(propylthio)-3H-[1,2,3]-triazolo[4,5-d]pyrimidin-3-yl]-5-(2-hydroxyethoxy)cyclopentane-1,2-diol], the “plasma ticagrelor levels lower with 60 mg vs 90 mg” value (60 mg vs 90 mg) was “approximately ⅓”, the concentration at 2 h (60 mg bid) was 448 ng/mL and the concentration at 2 h (90 mg bid) was 717 ng/mL.

Reference: patent US10300065B2, “Method of treating or prevention of atherothrombotic events in patients with history of myocardial infarction” (ASTRAZENECA AB, priority 2015, dated 2019)
